Literature values in US20250009631A1, “METHOD OF NAIL STRENGTHENING WITH A COMPLEX MICHAEL ADDITION TREATMENT COMPOSITION” (Wella Operations US, LLC, priority 2023, published 2025).
Where two headings read alike, the source gives them in different places.

Settings: nail plate

In the case of c1ccncc1 [pyridine], the permeability coefficient (pH 2) is given as “at least some permeation” and the permeability coefficient (pH 7.4) is given as “high permeation coefficient”.
